# From patent US20220079953A1, “METHODS FOR MANAGEMENT OF WEIGHT” (The University of Sydney, priority 2018, published 2022)
# Experiments:
# [1] = Sucrose self-administration under FR5 schedule; format: in vivo, Sprague Dawley rats; conditions: 10% sucrose; for active lever presses / number of sucrose rewards received: 15 min before session, p<0.001
# Description: This model induces high levels of sucrose consumption and sucrose seeking in rats, akin to the unhealthy high sugar diets that are a major determinant of obesity. Excessive consumption of sugar-sweetened beverages are especially associated with increased risk of obesity and type 2 diabetes. Thus, the model chosen here is particularly well suited as it involves escalating voluntary consumption of high-sucrose solution by rats, providing both face and construct validity.
# Male Sprague Dawley rats were water deprived for 19.5 hours before the start of sucrose self-administration. Water deprivation continued for the first five days of self-administration. Initially, rats were trained during daily 30 minute FR-1 scheduled sessions to lever press for sucrose (10%). Stable responding under the FR-1 schedule was achieved within 10 days. Rats were then transferred to an FR2 and FR3 schedule for a minimum of three days, and then an FR5 schedule until lever pressing stabilised. Subsequently SOC-1 testing began. Each test day was separated by 2-3 FR-5 scheduled sessions. Rats received SOC-1 in an ascending dose sequence (0, 5, and 10 mg/kg, ip), which was administered 15 minutes prior to the test session. On the final test session, rats received a vehicle injection to ensure rats continued to self-administer sucrose at high levels when not receiving treatment with SOC-1.
# [2] = Reinstatement of sucrose-seeking; format: in vivo, Sprague Dawley rats; conditions: for reinstatement of sucrose seeking: 15 min before session, p<0.001 vs 0 mg/kg reinstatement
# Description: Sugar is a highly palatable food component. This contributes greatly to the maintenance of the high sugar diets that can lead to obesity. Once a healthier diet has been established, including cessation of consumption of high sugar foods, it can be difficult for individuals to maintain that healthier diet. Specifically, after a period of not consuming the high sugar foods individuals can again start seeking out and consuming those foods. Here we model this resumption of high-sugar diet consumption using a rat model of reinstatement of sucrose self-administration to assess whether SOC-1 might reduce motivation to resume consumption of high-sugar foods.
# Male Sprague Dawley rats were water deprived for 19.5 hours before the start of sucrose self-administration. Water deprivation continued for the first five days of self-administration. Rats were allowed to acquire self-administration of sucrose (10%) during 30-minute FR-1 scheduled sessions for 20 days. Following this, rats were exposed to daily 30-minute extinction sessions. Rats met the extinction criteria (minimum of 10 days and less than 15 active lever presses per session for 2 consecutive days) after 10 sessions. Once the extinction criteria were met, rats underwent reinstatement testing. Each reinstatement test session was separated by two extinction days. Prior to each reinstatement session, rats received an injection of vehicle or SOC-1. Fifteen minutes later, they were placed in the testing chamber, where they had access to 0.3 ml sucrose, which they could lever press for. Rats received SOC-1 in an ascending dose sequence (0, 5, 10 mg/kg, ip). On the reinstatement session subsequent to SOC-1 dose testing, an additional vehicle session was conducted to ensure that rats continued to reinstate to sucrose-seeking behaviour when no treatment was given.
# [3] = Progressive ratio consumption of a high-sugar high-fat food (M&Ms) by non-human primates; format: in vivo, rhesus monkeys; conditions: for trend of breakpoint with increasing doses: 0, 1, 2, 3 mg/kg IM
# Description: Individuals who are overweight or obese frequently report intense cravings for, and motivation to, consume food. Here we model the motivational aspects that can drive excessive food-seeking and consumption, which can lead to overweight and obesity by studying rhesus monkeys who must respond under a progressive ratio to receive M&Ms (which are high in both fat and sugar). A progressive ratio requires subjects to work increasingly harder to obtain reinforcement, modelling the intense motivation and craving characteristic of excessive food-seeking and consumption in individuals who are obese, overweight or at risk of being overweight.
# Five female rhesus monkeys were trained to press a lever to self-administer M&Ms. Under a progressive ratio, subjects responded for a reinforcer of either 1 or 5 M&Ms. The ratio began at either 25 (two subjects) or 50 (three subjects) responses per reinforcement and increased by 40% after each reinforcer delivery. SOC-1 was administered IM using a within-subjects design whereby all monkeys received doses of 0, 1, 2 and 3 mg/kg SOC-1. One dose per subject was administered prior to each progressive ratio test session. Breakpoint refers to the number of times the monkeys would press the lever to receive a single reinforcer before giving up.
# [4] = Extinction of food reward-associated lever pressing in food restricted rats; format: in vivo, Long-Evans rats; conditions: all doses tested (5, 10, 20 mg/kg p.o.), 30 min before session
# Method: Adult male Long-Evans rats were allowed to feed freely until they reached a target weight of 320-340 g. Rats were then maintained at this weight by restricting feeding. Once target weight had been reached, each rat was placed in an operant test chamber and was trained to press the right lever to receive a 45 mg food pellet under an FR1 schedule of reinforcement during daily 15 min sessions.
# Once stable responding (right-side lever pressing+/−10% of the mean of the previous three sessions) had been established, drug testing commenced. Rats were pre-treated with SOC-1 (0, 5, 10, 20 mg/kg) administered by oral gavage (p.o.) 30 min prior to the start of the session.
# [5] = Inhibition of weight gain in rats; format: in vivo, Sprague Dawley rats; conditions: 30 mg/kg oral gavage once daily for 10 days; ad libitum standard chow
# Method: 20 adult male Sprague Dawley rats were given ad libitum access to standard rat chow in their home cage over the course of the experiment. Rats were divided into four equally sized groups and were treated once daily with either 0, 5, 10 or 30 mg/kg SOC-1 via oral gavage for 10 days. Body weights were recorded daily.
smiles,measurement,setting,value
Cn1ncc2c1Nc1ccccc1NC2 [SOC-1],active lever presses,[1]; 5 mg/kg ip,significantly decreased
same,number of sucrose rewards received,[1]; 5 mg/kg ip,significantly decreased
same,active lever presses,[1]; 10 mg/kg ip,significantly decreased
same,number of sucrose rewards received,[1]; 10 mg/kg ip,significantly decreased
same,inactive lever presses,[1]; 5 and 10 mg/kg ip,no significant effect
same,reinstatement of sucrose seeking,[2]; 5 mg/kg ip,completely prevented reinstatement
same,reinstatement of sucrose seeking,[2]; 10 mg/kg ip,completely prevented reinstatement
same,inactive lever presses,"[2]; reinstatement sessions, any dose (5, 10 mg/kg ip)",no significant effect
same,trend of breakpoint with increasing doses,"[3]; reinforcement 1 M&M, trend analysis p=0.012",significant linear decrease in breakpoint
same,breakpoint (lever presses for a single reinforcer before giving up),"[3]; reinforcement 1 M&M, 2 mg/kg IM, p=0.015 vs 0 mg/kg",significantly reduced the breakpoint
same,breakpoint (lever presses for a single reinforcer before giving up),"[3]; reinforcement 1 M&M, 3 mg/kg IM, p=0.014 vs 0 mg/kg",significantly reduced the breakpoint
same,trend of breakpoint with increasing doses,"[3]; reinforcement 5 M&Ms, trend analysis p=0.025",significant linear decrease in breakpoint
same,breakpoint (lever presses for a single reinforcer before giving up),"[3]; reinforcement 5 M&Ms, 3 mg/kg IM, p=0.021 vs 0 mg/kg",significantly reduced the breakpoint
same,non-reinforced responding for a food pellet,[4],significantly reduced
same,weight gain over the 10 treatment days,[5],significantly inhibited weight gain
